Reference: patent publication US11925667B2, “Engineered therapeutic probiotic system and method” (priority 2018, dated 2024)
Where two headings read alike, the source gives them in different places.

How the values were obtained:
[1] = tested on: human esophageal smooth muscle primary cells (SMCs); assay: Cell toxicity assay (MTT), SMC; type: cell-based; details: for GI50: Homo sapiens, read-out: GI 50 value
Excerpt: (§1) Cell culture and toxicity assay. While HCT116 human colorectal carcinoma cells (ATCC, Manassas, USA), LoVo human colorectal adenocarcinoma cells (ATCC), AGS human gastric adenocarcinoma cells (ATCC), MCF7 human breast adenocarcinoma cells (ATCC), human esophageal smooth muscle primary cells (SMCs) (Cell Biologics, Chicago, USA) and CT26 mouse colorectal carcinoma cells (ATCC) are used according to the claimed invention, other illustrative cell lines may similarly be utilized. Cells are cleared of mycoplasma contamination prior to use using Mycoalert™ PLUS mycoplasma detection kit (Lonza). HCT116 cells are cultured in McCoy's 5A medium, LoVo and AGS cells in Ham's F12 medium, MCF7 cells in DMEM medium, CT26 cells in RPMI medium, and SMCs in the specific medium kit purchased from Cell Biologics. In this illustrative embodiment, unless otherwise stated all cell culture media are purchased from Lonza (Walkersville, USA) and are supplemented with antibiotics (penicillin/streptomycin) and 5% fetal bovine serum (FBS, v/v). SMCs are prepared according to the manufacturer's protocol. All cell cultures are maintained at 37° C. and 5% CO2.
The MTT readout is fitted to a dose-response curve to determine the GI50 value (Eq. 2). Absorbance (570 nm)=Bottom+(Top−Bottom)/(1+10^(([Inhibitor]−Log 10 GI50))) (Eq. 2) HlpA binding assay. The HlpA gene sequence is optimized for E. coli expression, and the gene is cloned into a pET28b vector with an N-terminal GFP. GFP-HlpA and GFP are expressed using similar purification protocols, described above. […] Treated and adherent cells are washed with sterile PBS twice before staining with DAPI. The GFP/DAPI ratio is used to evaluate the binding ratio of protein binding per cell (Eq. 3). Ratio (GFP/DAPI)=Bottom+(Top−Bottom)/(1+10^(([Ligand]−Log 10 KD))) (Eq. 3) Similarly, N-terminal INP tagged to HlpA are cloned into the pBbE8K vector and co390 transformed with pBbE8a-RFP into E. coli Nissle. E. coli cells are cultured in LB supplemented with 50 mg/L ampicillin and 25 mg/L kanamycin and are induced with 1% arabinose. […] The cancer 394 cells are washed twice with 1×PBS and measured for DAPI and RFP emission. The fluorescence emission is compared on the linear standard curve of stained cells against the average fluorescence emission to determine the binding ratio of E. coli to cancer cells.

[2] = tested on: AGS human gastric adenocarcinoma cells; assay: Cell toxicity assay (MTT), AGS; type: cell-based; details: for Complete inhibition: AGS gastric; for GI50: Homo sapiens, read-out: GI 50 value
Excerpt: as §1, with “CO2. Cells are seeded in 96-well plates or on glass coverslips in 6-well plates at a density of […] and are cultured at 37° C. and 5% CO2 a day before protein-binding studies or co-culturing with transformed Nissle cells.” for “CO2.”
(§2) Cellular viability is measured at 3 hours, 24 hours and 72 hours post-treatment using the MTT assay (Sigma, St. Louis, USA). The inhibitory activity of myrosinase-converted AITC is performed by incubating cancer cells grown to 60% confluency with 0.1 μM of purified secreted I1 myrosinase with 0˜10 mM sinigrin at 37° C. and 5% CO2 and was sampled at 3 hours, 24 hours and 72 hours post-treatment. The MTT readout is fitted to a dose-response curve to determine the GI50 value (Eq. 2). Absorbance (570 nm)=Bottom+(Top−Bottom)/(1+10^(([Inhibitor]−Log 10 GI50))) (Eq. 2) HlpA binding assay. The HlpA gene sequence is optimized for E. coli expression, and the gene is cloned into a pET28b vector with an N-terminal GFP. GFP-HlpA and GFP are expressed using similar purification protocols, described above. […] Treated and adherent cells are washed with sterile PBS twice before staining with DAPI. The GFP/DAPI ratio is used to evaluate the binding ratio of protein binding per cell (Eq. 3). […] The cancer 394 cells are washed twice with 1×PBS and measured for DAPI and RFP emission. The fluorescence emission is compared on the linear standard curve of stained cells against the average fluorescence emission to determine the binding ratio of E. coli to cancer cells.

[3] = tested on: LoVo human colorectal adenocarcinoma cells; assay: Cell toxicity assay (MTT), LoVo; type: cell-based; details: for GI50: Homo sapiens, LoVo, read-out: GI 50 value; for Complete inhibition: LoVo colorectal
Excerpt: as §1, with “CO2. Cells are seeded in 96-well plates or on glass coverslips in 6-well plates at a density of […] and are cultured at 37° C. and 5% CO2 a day before protein-binding studies or co-culturing with transformed Nissle cells.” for “CO2.”
as §2

[4] = tested on: CT26 mouse colorectal carcinoma cells; assay: Cell toxicity assay (MTT), CT26; type: cell-based; details: for Complete inhibition: CT26 colorectal; for GI50: Mus musculus, CT26, read-out: GI 50 value
Excerpt: as §1, with “CO2. Cells are seeded in 96-well plates or on glass coverslips in 6-well plates at a density of […] and are cultured at 37° C. and 5% CO2 a day before protein-binding studies or co-culturing with transformed Nissle cells.” for “CO2.”
as §2

[5] = tested on: HCT116 human colorectal carcinoma cells; assay: Cell toxicity assay (MTT), HCT116; type: cell-based; details: for Complete inhibition: HCT116 colorectal; for GI50: Homo sapiens, HCT-116, read-out: GI 50 value
Excerpt: as §1, with “CO2. Cells are seeded in 96-well plates or on glass coverslips in 6-well plates at a density of […] and are cultured at 37° C. and 5% CO2 a day before protein-binding studies or co-culturing with transformed Nissle cells.” for “CO2.”
as §2

[6] = tested on: MCF7 human breast adenocarcinoma cells; assay: Cell toxicity assay (MTT), MCF7; type: cell-based; details: for GI50: Homo sapiens, MCF7, read-out: GI 50 value; for Complete inhibition: MCF7 breast
Excerpt: as §1, with “CO2. Cells are seeded in 96-well plates or on glass coverslips in 6-well plates at a density of […] and are cultured at 37° C. and 5% CO2 a day before protein-binding studies or co-culturing with transformed Nissle cells.” for “CO2.”
as §2

[7] = tested on: various colorectal, gastric and breast cancer cell lines; assay: Growth inhibition (MTT), summary over cancer cell lines; type: cell-based; details: read-out: 50% growth inhibition (GI50) values
Excerpt: as §1, with “In this illustrative embodiment, unless otherwise stated all cell culture media are purchased from Lonza (Walkersville, USA) and are supplemented with antibiotics (penicillin/streptomycin) and 5% fetal bovine serum (FBS, v/v). SMCs are prepared according to the manufacturer's protocol. All cell cultures are maintained at 37° C. and 5% CO2.” left out
(§3) The MTT readout is fitted to a dose-response curve to determine the GI50 value (Eq. 2). Absorbance (570 nm)=Bottom+(Top−Bottom)/(1+10^(([Inhibitor]−Log 10 GI50))) (Eq. 2) HlpA binding assay. […] The cancer 394 cells are washed twice with 1×PBS and measured for DAPI and RFP emission. The fluorescence emission is compared on the linear standard curve of stained cells against the average fluorescence emission to determine the binding ratio of E. coli to cancer cells.

[8] = tested on: various colorectal, gastric and breast cancer cell lines; assay: Growth inhibition in cancer cell lines; type: cell-based
Excerpt: as §1, with “In this illustrative embodiment, unless otherwise stated all cell culture media are purchased from Lonza (Walkersville, USA) and are supplemented with antibiotics (penicillin/streptomycin) and 5% fetal bovine serum (FBS, v/v). SMCs are prepared according to the manufacturer's protocol. All cell cultures are maintained at 37° C. and 5% CO2.” left out
as §3, with “Cellular viability is measured at 3 hours, 24 hours and 72 hours post-treatment using the MTT assay (Sigma, St. Louis, USA). […] The MTT” for “The MTT”

[9] = tested on: primary stem cells or other non-cancer cell lines; details: in words; cited from earlier work

SMILES | GI50 [1] [µM] | inhibition of primary smooth muscle cells [1] | Complete inhibition [2] [h] | GI50 [2] [µM] | GI50 [3] [µM] | Complete inhibition [3] [h] | Complete inhibition [4] [h] | GI50 [4] [µM] | Complete inhibition [5] [h] | GI50 [5] [µM] | GI50 [6] [µM] | Complete inhibition [6] [h] | GI50 [7] [µM] | Inhibition of cancer cell growth compared with L-sulforaphane ([8]; in words) | GI50 ([1]; SMC primary cells, MTT) [µM] | GI50 ([7]; various colorectal, gastric and breast cancer cell lines) [µM] | Growth inhibition observed within ([8]; upon adding L-sulforaphane) [h] | Effect on primary stem cells or other non-cancer cell lines [9]
C=CCN=C=S [AITC, allyl isothiocyanate] | 589 | does not inhibit | <24 | 18 | 74 | <24 | <24 | 15 | <24 | 116 | 104 | <3 | ~100 | poorer efficacy compared with L-sulforaphane | – | – | – | –
C[S@@+]([O-])CCCCN=C=S [L-sulforaphane] | – | does not inhibit | <24 | 15 | 23 | <24 | <24 | 45 | <24 | 30 | 29 | <3 | – | – | 375 | < 100 | ≤ 24 | does not affect
